# Results published in patent publication US9169217B2, “Arylalkyl esters of 4-amino-6-(substituted phenyl)-picolinates and 6-amino-2-(substituted phenyl)-pyrimidinecarboxylates and their use as selective herbicides for crops” (Dow AgroSciences LLC, priority 2011, dated 2015).
# Read-outs that look alike come from different tables or passages of the source.
# How the values were obtained:
# Type in all cases: in vivo
# [1] = system: Brachiaria platyphylla (GRISEB.) NASH (broadleaf signalgrass); assay: Postemergence foliar-applied herbicidal activity in direct seeded rice (Example 16); conditions: BRAPP, probit analysis; for GR50: 50% growth reduction; for GR80: 80% growth reduction; for GR90: 90% growth reduction
# Method in brief: (§1)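 Greenhouse plants at 2nd–3rd true leaf stage (10–17 d, ~29/26 °C, 14-h photoperiod) sprayed postemergence with ester forms in acetone–DMSO plus 1.25% crop oil concentrate at 187 L/ha. Visual injury scored 0–100% versus untreated plants after 3 weeks; GR50/GR80 derived by probit analysis.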
# [2] = system: Scirpus juncoides ROXB. (Japanese bulrush); assay: as above; conditions: Schoenoplectiella juncoides, post-emergence, 504 h, read-out: Visual Injury (%) SCPJU
# Method in brief: as §1
# [3] = system: Polygonum convolvulus (Buckwheat, wild); assay: Postemergence herbicidal activity in cereal crops (Example 14); conditions: wheat cropping systems, postemergence spray, 35 g ae/ha, 21 DAA
# Description: (§2) Seeds of the desired test plant species were planted in Sun Gro Metro-Mix® 360 planting mixture, which typically has a pH of 6.0 to 6.8 and an organic matter content of about 30 percent, in plastic pots with a surface area of 84.6 cm^2. When required to ensure good germination and healthy plants, a fungicide treatment and/or other chemical or physical treatment was applied. The plants were grown for 7-36 d in a greenhouse with an approximate 14 h photoperiod which was maintained at about 18° C. during the day and 17° C. during the night. Nutrients and water were added on a regular basis and supplemental lighting was provided with overhead metal halide 1000-Watt lamps as necessary. The plants were employed for testing when they reached the second or third true leaf stage.
# (§3) Treatments consisted of esters of compounds 33, 34, 39, 40 and 42 and B, F, G and H. Compound B is methyl 4-amino-3-chloro-6-(4-cyclopropylphenyl)-5-fluoropicolinate; compound F is methyl 6-amino-2-(4-chloro-2-fluoro-3-methoxyphenyl)-5-methoxypyrimidine-4-carboxylate; compound G is methyl 4-amino-3-chloro-6-(4-chloro-2-fluoro-3-methoxyphenyl)picolinate; and compound H is methyl 4-amino-3-chloro-6-(4-chloro-2-fluoro-3-(1-fluoroethyl)phenyl)-5-fluoropicolinate. A weighed amount, determined by the highest rate to be tested, of each test compound was placed in a 25 mL glass vial and was dissolved in 8 mL of a 97:3 v/v mixture of acetone and DMSO to obtain concentrated stock solutions. […] The concentrated stock solutions obtained were diluted with 16 mL of an aqueous mixture containing acetone, water, isopropyl alcohol, DMSO, Agri-dex crop oil concentrate, and Triton® X-77 surfactant in a 64.7:26.0:6.7:2.0:0.7:0.01 v/v ratio to obtain spray solutions containing the highest application rates. Additional application rates were obtained by serial dilution of 12 mL of the high rate solution into a solution containing 4 mL of a 97:3 v/v mixture of acetone and DMSO and 8 mL of an aqueous mixture containing acetone, water, isopropyl alcohol, DMSO, Agri-dex crop oil concentrate, and Triton® X-77 surfactant in a 48.5:39.0:10.0:1.5:1.0:0.02 v/v ratio to obtain ½×, ¼×, ⅛× and 1/16× rates of the high rate. Compound requirements are based upon a 12 mL application volume at a rate of 187 L/ha. Formulated compounds were applied to the plant material with an overhead Mandel track sprayer equipped with 8002E nozzles calibrated to deliver 187 L/ha over an application area of 0.503 m^2 at a spray height of 18 inches (43 cm) above average plant canopy height. Control plants were sprayed in the same manner with the blank.
# (§4) The treated plants and control plants were placed in a greenhouse as described above and watered by sub-irrigation to prevent wash-off of the test compounds. After 20-22 d, the condition of the test plants as compared with that of the untreated plants was determined visually and scored on a scale of 0 to 100 percent where 0 corresponds to no injury and 100 corresponds to complete kill.
# [4] = system: Matricaria chamomilla (Mayweed, wild); assay: as above; conditions: wheat cropping systems, postemergence spray, 35 g ae/ha, 21 DAA
# Description: as §2, §3, §4
# [5] = system: Brassica sinapis (Mustard, wild); assay: as above; conditions: wheat cropping systems, postemergence spray, 35 g ae/ha, 21 DAA
# Description: as §2, §3, §4
SMILES,Visual Injury (%) POLCO [3],Visual Injury (%) MATCH [4],Visual Injury (%) SINAR [5],other results
"COc1c(Cl)ccc(-c2nc(C(=O)OCc3ccccc3)c(Cl)c(N)c2F)c1F [Compound 1, benzyl 4-amino-3-chloro-6-(4-chloro-2-fluoro-3-methoxyphenyl)-5-fluoropicolinate]",–,–,–,GR50 [1]: <4.38 g ae/ha; GR80 [1]: 9.9 g ae/ha; GR90 [1]: 26.0 g ae/ha; pest or weed control at 8.75 g/ha [2]: 93%
COc1c(Cl)ccc(-c2cc(N)c(Cl)c(C(=O)OCc3ccccc3)n2)c1F [Compound 39],95%,95%,95%,–
"Nc1c(F)c(-c2ccc(C3CC3)cc2)nc(C(=O)OCc2ccccc2)c1Cl [Compound 42, benzyl 4-amino-3-chloro-6-(4-cyclopropylphenyl)-5-fluoropicolinate]",95%,–,93%,–
"COC(=O)c1nc(-c2ccc(C3CC3)cc2)c(F)c(N)c1Cl [Compound B, methyl 4-amino-3-chloro-6-(4-cyclopropylphenyl)-5-fluoropicolinate]",62%,–,70%,–
"COC(=O)c1nc(-c2ccc(Cl)c(OC)c2F)nc(N)c1OC [Compound F, methyl 6-amino-2-(4-chloro-2-fluoro-3-methoxyphenyl)-5-methoxypyrimidine-4-carboxylate, reference compound]",–,10%,–,–
"COC(=O)c1nc(-c2ccc(Cl)c(OC)c2F)cc(N)c1Cl [Compound G, methyl 4-amino-3-chloro-6-(4-chloro-2-fluoro-3-methoxyphenyl)picolinate, reference compound]",85%,75%,80%,–
"COC(=O)c1nc(-c2ccc(Cl)c(OC)c2F)c(F)c(N)c1Cl [E, methyl 4-amino-3-chloro-6-(4-chloro-2-fluoro-3-methoxyphenyl)-5-fluoropicolinate, reference compound]",–,–,–,"GR50 [1]: <4.38 g ae/ha; GR80 [1]: 22.7 g ae/ha; GR90 [1]: 84.3 g ae/ha; pest or weed control at 8.75 g/ha ([2]; rice cropping systems, foliar-applied, 8.75 g ae/ha, 21 DAA, may represent multiple trials): 61%"
